18 compounds from US10144726B2, “Modulators of the p70S6 kinase for use in the treatment of brain disorders and triple-negative breast cancer” (SENTINEL ONCOLOGY LIMITED, priority 2015, dated 2018) can be followed below.

The target of data set [1] is p70S6K (h) (Homo sapiens, UniProt P23443). The data set is described as follows: Determination of p70S6 inhibitory activity (radiometric kinase assay). The class given is biochemical. Particulars: read-out: (a) p70S6K1 IC50. The method, then:
The ability of compounds of the invention to inhibit P70S6 kinase was determined using the protocol below.
20 mM MOPS, 1 mM EDTA, 0.01% Brij-35, 5% Glycerol, 0.1% b-mercaptoethanol, 1 mg/mL BSA
In a final reaction volume of 25 μL, p70S6K (h) (5-10 mU) is incubated with 8 mM MOPS pH 7.0, 0.2 mM EDTA, 100 μM KKRNRTLTV, 10 mM Mg acetate and [γ-33P-ATP] (specific activity approx. 500 cpm/pmol, concentration as required). The reaction is initiated by the addition of the MgATP mix. After incubation for 40 minutes at room temperature, the reaction is stopped by the addition of 5 μL of a 3% phosphoric acid solution. 10 μL of the reaction mixture is then spotted onto a P30 filtermat and washed three times for 5 minutes in 75 mM phosphoric acid and once in methanol prior to drying and scintillation counting.

Data set [2] concerns phosphorylation of S6 at Serine residues 240 and 244 in MCF7 cells. As to the kind of experiment: MCF7 pS6 ELISA variant (pS240/244, 0% FBS). Particulars: Homo sapiens, S6 Serine 240 and 244 detected, read-out: (b) MCF-7 pS6 ELISA IC50 (pS240/244 variant). The class given is cell-based. In general terms: In an ELISA, binding on a coated surface is turned into a signal by an enzyme label.

Data set [3] in a line: Brain and plasma concentrations in an in vivo cassette mouse model. Also on record: species or system male CD-1 mice. The settings on record: male, PO cassette, 2.5 mg/kg per compound; for Kp at 3 h: read-out: (d) Brain: Plasma ratio at 3 hours. As to the method: The compounds of this invention were evaluated in an in vivo cassette mouse model to determine brain and plasma concentrations following oral dosing. This is an industry-standard and recognised means to assess brain penetration of small molecules (for recent literature article, refer to In vitro permeability analysis, pharmacokinetic and brain distribution study in mice of imperatorin, isoimperatorin and cnidilin in Radix Angelicae Dahuricae, Fitoterapia, Volume 85, March 2013 , Pages 144-153). It is also recognised that higher brain concentrations (and higher ratios of brain: plasma concentration) lead to greater exposure in the brain—this is clearly advantageous if the brain is the site of action.
For a single cassette study, male CD-1 mice were used (n=3 per timepoint, two timepoints: 1.0 hr and 3.0 hr).
5 compounds were dosed PO per cassette (dose level 2.5 mg/kg per compound, dose conc. 0.25 mg/ml, dose volume 10.0 ml/kg).
Formulation used to solubilize compounds: 10% DMSO/90% hydroxypropyl-β-cyclodextrin (20% w/v aqueous)
Sampling was terminal and plasma and brain matrices were generated. To prepare plasma samples, protein was precipitated using acetonitrile. To prepare brain samples, homogenisation and protein precipitation was performed with acetonitrile. Samples were analysed using HPLC-TOF MS using electrospray ionisation.

Data set [4] deals with phosphorylation of S6 Ser235/236 in MCF-7 cells. As to the kind of experiment: MCF-7 pS6 ELISA (phosphorylation of S6 Ser235/236). The class given is cell-based. Particulars: Homo sapiens, MCF7; for IC50: S6 Ser235/236, 1% FBS, 2 h, read-out: (b) MCF-7 pS6 ELISA IC50. As to the method:
The following assay provides IC50 values for inhibition of P70S6K activity in a whole cell assay by determining effects on the phosphorylation of S6^Ser235/236 in MCF-7 cells by ELISA.
The following protocol was used: • 1) MCF-7 cells were seeded in 96-well plates at a density of 7000 cells per well and allowed to adhere for 6 h in media containing 10% FBS. • 2) The full serum media was replaced and cells incubated overnight in media containing 1% FBS, prior to addition of test compounds. • 3) Test compounds were prepared from 10 mM DMSO stocks to give final concentration ranges as indicated on graphs. DMSO was constant at a final concentration of 1%. • 4) Test compounds were incubated with cells in duplicate for 2 h at 37° C/5% CO2 in a humidified atmosphere. • 5) The media was removed and cells were lysed by freeze-thawing in cell lysis buffer. • 6) Detection of phosphorylated S6Ser235/236 was then carried out using a PathScan ELISA kit (Cell Signaling Technology #7205). • 7) Lysates were diluted 1:1 with sample diluent before being applied to wells coated with an antibody against phosphorylated-S6 protein. • 8) The ELISA was then performed as stated in the manufacturers' instructions. • 9) The raw data were normalised to control values and analysed using a 4-parameter logistic equation in GraphPad Prism.

The test system of data set [5] is MCF-7 cells. As to the kind of experiment: MCF-7 proliferation assay (Alamar blue, 72 h). Format: cell-based. Particulars: Homo sapiens, MCF7, 72 h; read-out: (c) MCF-7 proliferation IC50. The method, then: The following assay was used to determine the ability of test compounds to inhibit cell growth.
The following protocol was used: • 1) MCF-7 cells were seeded in 96-well plates at 5000 cells per well and allowed to adhere overnight prior to addition of compound or vehicle control. • 2) Test compounds were prepared from 10 mM DMSO stocks to give a final concentration range of 100 μM, 30 μM, 10 μM, 3 μM, 1 μM, 0.3 μM, 0.1 μM, 0.03 μM, 0.01 μM and vehicle control. The DMSO content was constant at 1%. • 3) Test compounds were incubated with the cells for 72 h at 37° C. 5% CO2 in a humidified atmosphere. • 4) Alamar blue 10% (v/v) was then added and incubated for a further 6 h, and fluorescent product detected using the BMG FLUOstar plate reader. • 5) Data were analysed using a 4-parameter logistic equation in GraphPad Prism.
A general note: The colour change of resazurin is a common sign of viable cells or microbes.

Setting [6] is: CD-1, brain, read-out: (d) Brain conc. at 3 hours.
Setting [7] is: CD-1, plasma, read-out: (d) Plasma conc. at 3 hours.

By inhibition is commonly meant how much of the control response was suppressed.

Where a name gives a salt, the structure may show the parent alone. Read-outs that look alike come from different tables or passages of the source.

p70S6K (h), sequence (P23443 whole entry): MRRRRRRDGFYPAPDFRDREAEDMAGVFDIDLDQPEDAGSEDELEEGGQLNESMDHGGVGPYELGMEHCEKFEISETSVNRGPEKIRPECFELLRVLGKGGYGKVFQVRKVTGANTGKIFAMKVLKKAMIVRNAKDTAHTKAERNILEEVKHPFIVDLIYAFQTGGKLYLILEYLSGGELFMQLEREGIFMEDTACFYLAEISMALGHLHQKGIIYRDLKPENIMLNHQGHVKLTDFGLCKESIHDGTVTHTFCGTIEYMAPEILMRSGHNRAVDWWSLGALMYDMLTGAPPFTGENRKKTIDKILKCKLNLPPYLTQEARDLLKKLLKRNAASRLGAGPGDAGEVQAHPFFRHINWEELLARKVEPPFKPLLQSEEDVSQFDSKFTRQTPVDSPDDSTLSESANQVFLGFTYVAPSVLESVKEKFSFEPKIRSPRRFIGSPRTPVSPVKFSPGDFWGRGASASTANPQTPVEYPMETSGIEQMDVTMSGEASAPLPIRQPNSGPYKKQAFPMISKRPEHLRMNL

Consider `C[C@@H](Nc1nc2ccc(-c3cn[nH]c3)cc2[n+]([O-])n1)c1ccccc1` [Example 18, 1-oxido-N-[(1R)-1-phenylethyl]-7-(1H-pyrazol-4-yl)-1,2,4-benzotriazin-1-ium-3-amine hydrochloride], for which the IC50 in data set [1] amounted to 12 nM; in data set [2], 5.04 µM. In addition, the concentration at 3 h was 990 nM in data set [3] (setting [6]) and 560 nM in data set [3] (setting [7]). Also, the Kp at 3 h in data set [3] (CD-1, brain) was 1.8.

For the compound `COc1cccc([C@@H](C)N(C)c2cnc3cc(-c4cn[nH]c4)ccc3n2)c1` [Example 14], the IC50 in data set [4] turned out to be 900 nM; in data set [1], 9 nM; in data set [5] it was 9 µM. Besides, the figures for the concentration at 3 h in data set [3] (setting [6]) and in data set [3] (setting [7]) were 2650 nM and 790 nM, respectively. In addition, the Kp at 3 h in data set [3] (CD-1, brain) stood at 3.3.

With `C[C@H](c1ccccc1)N(C)c1cnc2cc(-c3cn[nH]c3)ccc2n1` [Example 13], the IC50 in data set [4] is 1200 nM; in data set [1] it was 5 nM. Also, the concentration at 3 h was 2960 nM in data set [3] (setting [6]) and 700 nM in data set [3] (setting [7]). For the same compound, the Kp at 3 h in data set [3] (CD-1, brain) came out at 4.2.

Consider `Clc1cccc(CNc2cnc3cc(-c4cn[nH]c4)ccc3n2)c1` [Example 2], for which the IC50 in data set [4] was determined as 400 nM; in data set [1], 25 nM; in data set [5], 15 µM. Further, the results for the concentration at 3 h in data set [3] (setting [6]) and in data set [3] (setting [7]) were 1500 nM and 1230 nM, respectively. Also, the Kp at 3 h in data set [3] (CD-1, brain) stood at 1.2.

Turning to `CN(Cc1ccccc1)c1nc2ccc(-c3cn[nH]c3)cc2[n+]([O-])n1` [Example 10], in data set [1], the IC50 was 62 nM. Also, the figures for the concentration at 3 h in data set [3] (setting [6]) and in data set [3] (setting [7]) were 750 nM and 180 nM, respectively. Also, the Kp at 3 h in data set [3] (CD-1, brain) stood at 4.2.

For the compound `[O-][n+]1nc(NCc2ccccc2)nc2ccc(-c3cn[nH]c3)cc21` [Example 17], the IC50 in data set [1] came out at 32 nM. Moreover, the concentration at 3 h in data set [3] (setting [6]) was found to be 210 nM; in data set [3] (setting [7]), 160 nM. In addition, the Kp at 3 h in data set [3] (CD-1, brain) came to 1.3.

Take `CN(Cc1ccccc1)c1cnc2cc(-c3cn[nH]c3)ccc2n1` [Example 1]: the IC50 was 3000 nM in data set [4], 4 nM in data set [1] and 12.2 µM in data set [5]. The concentration at 3 h in data set [3] (setting [6]) was 3650 nM; in data set [3] (setting [7]), 970 nM. For the same compound, the Kp at 3 h in data set [3] (CD-1, brain) is 3.8.

As for `COc1cccc([C@@H](C)Nc2cnc3cc(-c4cn[nH]c4)ccc3n2)c1` [Example 12], the IC50 in data set [4] turned out to be 800 nM; in data set [1], 7 nM; in data set [5], 8.4 µM. In addition, the concentration at 3 h in data set [3] (setting [6]) is 2400 nM; in data set [3] (setting [7]) it was 5050 nM. Moreover, the Kp at 3 h in data set [3] (CD-1, brain) was 0.5.

For the compound `Fc1ccc(CNc2cnc3cc(-c4cn[nH]c4)ccc3n2)cc1F` [Example 8], the values for the IC50 in data set [4], in data set [1] and in data set [5] were 1400 nM, 26 nM and 24 µM, respectively. The concentration at 3 h in data set [3] (setting [6]) was found to be 820 nM; in data set [3] (setting [7]), 760 nM. The Kp at 3 h in data set [3] (CD-1, brain) was determined as 1.1.

On to `CN(Cc1ccccc1)c1nnc2cc(-c3cn[nH]c3)ccc2n1` [Example 11], for which the IC50 in data set [1] was found to be 64 nM. Moreover, the concentration at 3 h in data set [3] (setting [6]) is 2620 nM; in data set [3] (setting [7]), 350 nM. Besides, in data set [3] (CD-1, brain), the Kp at 3 h was determined as 7.5.

On to `C[C@@H](Nc1nnc2cc(-c3cn[nH]c3)ccc2n1)c1ccccc1` [Example 19, N-[(1 R)-1-phenylethyl]-7-(1H-pyrazol-4-yl)-1,2,4-benzotriazin-3-amine hydrochloride], for which the IC50 came out at 22 nM in data set [1] and 4.59 µM in data set [2]. Besides, the concentration at 3 h in data set [3] (setting [6]) was 2330 nM; in data set [3] (setting [7]) it was 810 nM. Besides, the Kp at 3 h in data set [3] (CD-1, brain) is 2.9.

Regarding `COc1cccc(CNc2cnc3cc(-c4cn[nH]c4)ccc3n2)c1` [Example 4], the IC50 was 400 nM in data set [4], 30 nM in data set [1] and 2.3 µM in data set [5]. For the same compound, the values for the concentration at 3 h in data set [3] (setting [6]) and in data set [3] (setting [7]) were 1080 nM and 1730 nM, respectively. Moreover, the Kp at 3 h in data set [3] (CD-1, brain) worked out at 0.6.

Regarding `Cc1cccc([C@@H](C)Nc2cnc3cc(-c4cn[nH]c4)ccc3n2)c1` [Example 16], the inhibition at 0.3 µM in data set [4] (at 0.3 uM, read-out: (b) MCF-7 pS6 ELISA inhibition) stood at 57%. The IC50 in data set [1] came to 18 nM; in data set [5], 4.2 µM. Moreover, the results for the concentration at 3 h in data set [3] (setting [6]) and in data set [3] (setting [7]) were 3250 nM and 3340 nM, respectively. Moreover, in data set [3] (CD-1, brain), the Kp at 3 h worked out at 1.

In the case of `Fc1ccc(CNc2cnc3cc(-c4cn[nH]c4)ccc3n2)cc1` [Example 3], the IC50 came out at 3200 nM in data set [4], 26 nM in data set [1] and 5.3 µM in data set [5]. Also, the figures for the concentration at 3 h in data set [3] (setting [6]) and in data set [3] (setting [7]) were 590 nM and 520 nM, respectively. Moreover, in data set [3] (CD-1, brain), the Kp at 3 h was 1.1.

`CCN(Cc1ccccc1)c1cnc2cc(-c3cn[nH]c3)ccc2n1` [Example 6]: the IC50 in data set [1] is 33 nM; in data set [5], 28 µM. The concentration at 3 h was 2380 nM in data set [3] (setting [6]) and 550 nM in data set [3] (setting [7]). Besides, the Kp at 3 h in data set [3] (CD-1, brain) stood at 4.3.

`C[C@@H](Nc1cnc2cc(-c3cn[nH]c3)ccc2n1)c1ccccc1` [Example 9]: the figures for the IC50 in data set [4], in data set [1] and in data set [5] were 300 nM, 3 nM and 15 µM, respectively. The values for the concentration at 3 h in data set [3] (setting [6]) and in data set [3] (setting [7]) were 2070 nM and 1510 nM, respectively. Moreover, the Kp at 3 h in data set [3] (CD-1, brain) was 1.4.

On to `CN(Cc1ccc(F)cc1)c1cnc2cc(-c3cn[nH]c3)ccc2n1` [Example 5], for which the IC50 in data set [4] amounted to 3200 nM; in data set [1], 12 nM; in data set [5] it was 33 µM. Besides, the concentration at 3 h amounted to 2480 nM in data set [3] (setting [6]) and 760 nM in data set [3] (setting [7]). For the same compound, the Kp at 3 h in data set [3] (CD-1, brain) came out at 3.3.

Regarding `CN(Cc1cccc(F)c1)c1cnc2cc(-c3cn[nH]c3)ccc2n1` [Example 7], the IC50 in data set [4] amounted to 900 nM; in data set [1], 9 nM; in data set [5], 7 µM. The concentration at 3 h in data set [3] (setting [6]) is 2880 nM; in data set [3] (setting [7]), 830 nM. In addition, the Kp at 3 h in data set [3] (CD-1, brain) was found to be 3.5.
